From PMC12394658, “Discovery of Zharp1-163 as a dual inhibitor of ferroptosis and necroptosis for the treatment of inflammatory disorders and kidney injury” (Cell Death Discovery, 2025)

Key:
Assay in all cases: biochemical
Parameters in all cases: Kinase selectivity panel of 81 human kinases, ADP-Glo or HTRF, per cent inhibition at 1 uM
p38α = target: T1, p38α (Homo sapiens, UniProt Q16539)
T1 construct: gene MAPK14
Description: (§1) We next sought to determine the binding affinity of Zharp1-163 for RIPK1 or RIPK3 via a binding assay (Fig. 4A). […] Further, we evaluated the selectivity of Zharp1-163 against a panel of 81 kinases (at 1000 nM). […] To elucidate the binding interactions between Zharp1-163 and RIPK1 kinase, we conducted molecular docking studies using the RIPK1 crystal structure (PDB ID: 4NEU). The predicted binding conformations and interaction patterns between Zharp1-163 and the RIPK1 kinase domain are presented in Fig. 4D, E. Like the cocrystallized ligand in the 4NEU crystal complex, Zharp1-163 was predicted to act as a typical type II kinase inhibitor, interacting with the DLG (Asp156-Leu157-Gly158)-out conformation of RIPK1 (Fig. 4D, E). The 2-aminoimidazo [1,2-a] pyridine moiety of Zharp1-163 formed hydrogen bonds with Met95 in the hinge region. Furthermore, the carboxylate group of Zharp1-163 established hydrogen bonds with Asp156 in the DLG-out region. Additionally, the saturated ring of Zharp1-163 was deeply embedded within the hydrophobic allosteric pocket formed by the residues Met66, Met67, Leu70, Val76, Leu129, and Leu159, which is created by the DLG-out conformation in RIPK1 (Fig. 4D, E).  Fig. 4 Zharp1-163 is a selective inhibitor of RIPK1 kinase activity. A Binding affinity curve of Zharp1-163 with RIPK1 and RIPK3. B In an in vitro kinase activity assay, recombinant RIPK1 was incubated with Zharp1-163, after which RIPK1 kinase activity was determined by measuring ATP levels via a luciferase reporter assay system. […] Kinases are marked with dots, where the color of each kinase indicates the level of inhibition achieved by Zharp1-163. D Predicted binding conformation of Zharp1-163. E Schematic representation of the interaction patterns between Zharp1-163 and the key residues in the binding pocket of the RIPK1 kinase. […] NIH3T3-RIPK3 cells were pretreated with the indicated concentrations of Zharp1-163 for 2 h and then treated with AP20187 (100 nM) for 24 h. Cell viability was determined by measuring ATP levels. […] HeLa-MLKL (1–190) cells were pretreated with the indicated concentrations of Zharp1-163 for 2 h and subsequently treated with AP20187 (100 nM) for 24 h. Cell viability was determined by measuring ATP levels. H Viability of IFNβ-primed MEFs at 18 h after stimulation with poly(I:C) plus z-VAD and treatment with Zharp1-163 (10 μM). I Effects of different concentrations of Zharp1-163 on WT or RIPK1 KO HT-29 cells. Cell viability was determined by measuring ATP levels. The data are presented as the mean ± SD of triplicate samples.

PIM1 = PIM1 (Homo sapiens, UniProt P11309)
Description: as §1

RSK1 = target: T2, RSK1 (Homo sapiens, UniProt Q15418)
T2 construct: gene RPS6KA1
Description: as §1

QIK = target: T3, QIK (Homo sapiens, UniProt Q9H0K1)
T3 construct: gene SIK2
Description: as §1

CDK5/p35NCK = target: T4, CDK5/p35NCK (Homo sapiens, UniProt Q00535)
T4 construct: p35NCK
Description: as §1

MAP2K1 = MAP2K1 (Homo sapiens, UniProt Q02750)
Description: as §1

DYRK1B = DYRK1B (Homo sapiens, UniProt Q9Y463)
Description: as §1

SYK = SYK (Homo sapiens, UniProt P43405)
Description: as §1

GSK3β = target: T5, GSK3β (Homo sapiens, UniProt P49841)
T5 construct: gene GSK3B
Description: as §1

PAK2 = PAK2 (Homo sapiens, UniProt Q13177)
Description: as §1

HPK1 = target: T6, HPK1 (Homo sapiens, UniProt Q92918)
T6 construct: gene MAP4K1
Description: as §1

BMX = BMX (Homo sapiens, UniProt P51813)
Description: as §1

MARK1 = MARK1 (Homo sapiens, UniProt Q9P0L2)
Description: as §1

FGFR1 = FGFR1 (Homo sapiens, UniProt P11362)
Description: as §1

Chain of MARK1 (Q9P0L2 whole entry): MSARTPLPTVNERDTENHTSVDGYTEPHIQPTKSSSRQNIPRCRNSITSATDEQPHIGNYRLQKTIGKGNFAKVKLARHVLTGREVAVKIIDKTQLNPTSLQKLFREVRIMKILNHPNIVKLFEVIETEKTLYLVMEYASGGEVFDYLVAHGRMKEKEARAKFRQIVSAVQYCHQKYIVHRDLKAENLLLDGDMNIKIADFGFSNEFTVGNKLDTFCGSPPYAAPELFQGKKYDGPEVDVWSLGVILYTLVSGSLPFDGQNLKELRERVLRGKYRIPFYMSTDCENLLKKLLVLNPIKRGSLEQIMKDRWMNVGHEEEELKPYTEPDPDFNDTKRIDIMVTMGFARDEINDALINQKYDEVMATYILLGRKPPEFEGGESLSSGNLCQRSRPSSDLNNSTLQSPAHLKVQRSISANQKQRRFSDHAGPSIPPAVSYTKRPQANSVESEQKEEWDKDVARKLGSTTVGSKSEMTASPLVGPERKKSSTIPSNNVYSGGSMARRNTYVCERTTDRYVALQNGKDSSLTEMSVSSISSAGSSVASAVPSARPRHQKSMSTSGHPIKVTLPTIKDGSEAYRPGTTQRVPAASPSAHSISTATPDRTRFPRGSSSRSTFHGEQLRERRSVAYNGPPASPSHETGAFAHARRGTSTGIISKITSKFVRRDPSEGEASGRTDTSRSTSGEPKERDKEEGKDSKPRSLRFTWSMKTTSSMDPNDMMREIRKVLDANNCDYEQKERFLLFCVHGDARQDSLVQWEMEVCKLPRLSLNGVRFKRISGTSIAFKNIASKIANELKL
Chain of FGFR1 (P11362 whole entry): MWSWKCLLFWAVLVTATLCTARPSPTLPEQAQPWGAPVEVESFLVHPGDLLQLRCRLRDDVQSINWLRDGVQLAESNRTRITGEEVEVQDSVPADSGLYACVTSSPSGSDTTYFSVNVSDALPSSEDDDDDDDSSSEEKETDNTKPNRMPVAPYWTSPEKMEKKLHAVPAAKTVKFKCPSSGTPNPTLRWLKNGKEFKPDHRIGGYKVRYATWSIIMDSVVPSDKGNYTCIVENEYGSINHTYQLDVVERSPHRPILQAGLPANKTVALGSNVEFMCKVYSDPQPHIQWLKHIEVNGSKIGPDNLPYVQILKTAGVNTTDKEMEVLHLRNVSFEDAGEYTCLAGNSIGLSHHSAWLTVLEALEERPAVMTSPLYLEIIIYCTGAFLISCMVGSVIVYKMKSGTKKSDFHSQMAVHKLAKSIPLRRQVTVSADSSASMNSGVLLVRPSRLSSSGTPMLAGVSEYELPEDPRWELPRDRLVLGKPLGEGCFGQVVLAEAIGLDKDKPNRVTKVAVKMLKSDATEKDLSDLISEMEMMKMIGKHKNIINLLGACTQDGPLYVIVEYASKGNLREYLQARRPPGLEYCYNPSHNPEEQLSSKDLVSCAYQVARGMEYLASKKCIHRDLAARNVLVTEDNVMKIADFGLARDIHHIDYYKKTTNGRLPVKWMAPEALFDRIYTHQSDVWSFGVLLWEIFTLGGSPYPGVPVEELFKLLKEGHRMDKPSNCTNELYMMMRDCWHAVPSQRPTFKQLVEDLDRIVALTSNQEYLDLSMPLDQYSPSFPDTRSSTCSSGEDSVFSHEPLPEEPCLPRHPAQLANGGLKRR
T4 sequence (Q00535 whole entry): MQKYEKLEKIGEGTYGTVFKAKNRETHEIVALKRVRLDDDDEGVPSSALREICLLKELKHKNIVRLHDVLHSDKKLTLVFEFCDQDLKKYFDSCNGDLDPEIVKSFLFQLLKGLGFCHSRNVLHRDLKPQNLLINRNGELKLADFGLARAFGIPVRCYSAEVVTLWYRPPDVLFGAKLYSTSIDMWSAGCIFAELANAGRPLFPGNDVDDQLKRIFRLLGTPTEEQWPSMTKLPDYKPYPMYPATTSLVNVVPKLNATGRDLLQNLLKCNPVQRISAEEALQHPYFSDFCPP
T4 sequence (Q15078 whole entry partner): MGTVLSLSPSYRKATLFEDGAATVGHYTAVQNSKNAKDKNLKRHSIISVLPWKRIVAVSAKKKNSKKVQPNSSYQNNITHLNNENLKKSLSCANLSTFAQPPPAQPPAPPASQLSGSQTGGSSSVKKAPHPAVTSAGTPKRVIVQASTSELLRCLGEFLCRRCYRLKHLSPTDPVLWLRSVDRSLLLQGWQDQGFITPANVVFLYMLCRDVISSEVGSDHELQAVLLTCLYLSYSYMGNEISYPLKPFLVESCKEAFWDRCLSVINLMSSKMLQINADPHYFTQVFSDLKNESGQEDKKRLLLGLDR
T2 sequence (Q15418 whole entry): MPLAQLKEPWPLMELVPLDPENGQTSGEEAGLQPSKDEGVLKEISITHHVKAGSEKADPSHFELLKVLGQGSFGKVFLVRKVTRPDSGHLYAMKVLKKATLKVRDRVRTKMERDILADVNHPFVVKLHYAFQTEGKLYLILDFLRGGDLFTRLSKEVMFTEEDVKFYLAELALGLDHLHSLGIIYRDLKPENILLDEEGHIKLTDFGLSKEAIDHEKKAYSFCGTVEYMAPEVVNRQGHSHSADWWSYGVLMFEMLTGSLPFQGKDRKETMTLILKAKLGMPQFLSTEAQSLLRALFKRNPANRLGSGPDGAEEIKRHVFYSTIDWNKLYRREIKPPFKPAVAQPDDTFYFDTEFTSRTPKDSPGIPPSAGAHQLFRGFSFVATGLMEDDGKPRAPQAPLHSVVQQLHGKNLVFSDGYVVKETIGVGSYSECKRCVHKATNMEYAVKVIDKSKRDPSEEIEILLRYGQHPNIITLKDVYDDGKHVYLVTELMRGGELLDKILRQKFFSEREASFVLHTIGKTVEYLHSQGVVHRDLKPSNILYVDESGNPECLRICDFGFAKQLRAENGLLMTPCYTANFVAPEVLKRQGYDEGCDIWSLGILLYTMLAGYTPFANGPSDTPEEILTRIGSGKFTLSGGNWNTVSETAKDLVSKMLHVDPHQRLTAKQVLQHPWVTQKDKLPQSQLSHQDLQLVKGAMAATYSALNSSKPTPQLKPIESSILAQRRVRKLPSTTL
Chain of PAK2 (Q13177 whole entry): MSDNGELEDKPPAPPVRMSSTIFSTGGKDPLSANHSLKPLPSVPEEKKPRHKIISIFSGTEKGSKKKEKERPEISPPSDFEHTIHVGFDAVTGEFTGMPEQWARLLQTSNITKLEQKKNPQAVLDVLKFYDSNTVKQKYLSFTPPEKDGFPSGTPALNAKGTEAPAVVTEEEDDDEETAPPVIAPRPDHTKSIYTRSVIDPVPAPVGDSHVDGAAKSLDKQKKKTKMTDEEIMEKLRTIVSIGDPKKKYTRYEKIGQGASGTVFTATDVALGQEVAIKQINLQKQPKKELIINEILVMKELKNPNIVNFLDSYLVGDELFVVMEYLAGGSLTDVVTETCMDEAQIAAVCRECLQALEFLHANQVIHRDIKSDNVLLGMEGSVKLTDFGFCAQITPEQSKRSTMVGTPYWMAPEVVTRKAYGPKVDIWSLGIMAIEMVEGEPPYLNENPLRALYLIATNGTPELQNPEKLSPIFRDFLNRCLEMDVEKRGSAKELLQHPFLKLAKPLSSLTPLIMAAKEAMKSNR
Chain of PIM1 (P11309 whole entry): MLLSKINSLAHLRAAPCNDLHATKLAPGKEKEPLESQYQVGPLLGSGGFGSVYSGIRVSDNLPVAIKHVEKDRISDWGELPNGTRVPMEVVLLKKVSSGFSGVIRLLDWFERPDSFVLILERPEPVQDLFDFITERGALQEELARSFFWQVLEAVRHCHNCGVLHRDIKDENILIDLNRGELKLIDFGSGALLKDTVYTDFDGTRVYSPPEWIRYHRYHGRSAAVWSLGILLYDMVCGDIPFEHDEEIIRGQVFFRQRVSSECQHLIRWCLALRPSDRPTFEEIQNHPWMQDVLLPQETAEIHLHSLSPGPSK
T5 sequence (P49841 whole entry): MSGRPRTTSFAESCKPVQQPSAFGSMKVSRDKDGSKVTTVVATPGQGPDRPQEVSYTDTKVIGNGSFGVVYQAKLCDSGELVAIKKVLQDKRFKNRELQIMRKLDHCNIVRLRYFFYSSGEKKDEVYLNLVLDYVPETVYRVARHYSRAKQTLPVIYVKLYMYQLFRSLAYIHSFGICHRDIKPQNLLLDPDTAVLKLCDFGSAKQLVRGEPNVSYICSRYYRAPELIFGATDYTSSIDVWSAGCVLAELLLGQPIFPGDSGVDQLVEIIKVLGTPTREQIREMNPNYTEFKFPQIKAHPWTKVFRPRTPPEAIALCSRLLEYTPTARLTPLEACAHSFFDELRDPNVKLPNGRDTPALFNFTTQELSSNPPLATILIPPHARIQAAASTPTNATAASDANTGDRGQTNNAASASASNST
Chain of DYRK1B (Q9Y463 whole entry): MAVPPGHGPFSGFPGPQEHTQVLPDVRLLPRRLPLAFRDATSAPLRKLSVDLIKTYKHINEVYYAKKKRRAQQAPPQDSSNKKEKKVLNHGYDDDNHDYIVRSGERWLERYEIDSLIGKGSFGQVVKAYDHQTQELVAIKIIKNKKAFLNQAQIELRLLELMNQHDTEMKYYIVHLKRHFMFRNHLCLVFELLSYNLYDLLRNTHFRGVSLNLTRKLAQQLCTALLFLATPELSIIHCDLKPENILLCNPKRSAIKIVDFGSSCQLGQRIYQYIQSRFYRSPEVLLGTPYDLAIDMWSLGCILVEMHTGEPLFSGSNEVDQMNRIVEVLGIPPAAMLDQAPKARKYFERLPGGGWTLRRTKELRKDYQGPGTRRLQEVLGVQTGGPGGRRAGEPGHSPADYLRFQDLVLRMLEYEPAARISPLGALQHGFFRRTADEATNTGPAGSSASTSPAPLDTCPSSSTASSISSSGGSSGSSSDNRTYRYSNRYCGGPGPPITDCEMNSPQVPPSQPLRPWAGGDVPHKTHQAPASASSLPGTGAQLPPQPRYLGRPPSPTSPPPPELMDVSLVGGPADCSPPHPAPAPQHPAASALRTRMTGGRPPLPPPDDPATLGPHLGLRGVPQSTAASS

Nc1cn2cc(-c3cnc4c(c3)N(C(=O)OC3CCCCC3)CCO4)ccc2n1 [Zharp1-163]
inhibition at 1 µM (p38α; replicate Data1): 11.8%
inhibition at 1 µM (p38α; replicate Data2): 9.57%
inhibition at 1 µM (PIM1; replicate Data1): 3.88%
inhibition at 1 µM (PIM1; replicate Data2): 7.34%
inhibition at 1 µM (RSK1; replicate Data1): 6.09%
inhibition at 1 µM (RSK1; replicate Data2): 5.81%
inhibition at 1 µM (QIK; replicate Data1): 9.18%
inhibition at 1 µM (QIK; replicate Data2): 2.94%
inhibition at 1 µM (CDK5/p35NCK; replicate Data1): 7.89%
inhibition at 1 µM (CDK5/p35NCK; replicate Data2): 1.25%
inhibition at 1 µM (MAP2K1; replicate Data1): -8.67%
inhibition at 1 µM (MAP2K1; replicate Data2): 0.16%
inhibition at 1 µM (DYRK1B; replicate Data1): 16.6%
inhibition at 1 µM (DYRK1B; replicate Data2): 9.23%
inhibition at 1 µM (SYK; replicate Data1): 5.12%
inhibition at 1 µM (SYK; replicate Data2): 4.56%
inhibition at 1 µM (GSK3β; replicate Data1): 11.8%
inhibition at 1 µM (GSK3β; replicate Data2): -2.82%
inhibition at 1 µM (PAK2; replicate Data1): -3.2%
inhibition at 1 µM (PAK2; replicate Data2): -2.35%
inhibition at 1 µM (HPK1; replicate Data1): 17%
inhibition at 1 µM (HPK1; replicate Data2): 2.46%
inhibition at 1 µM (BMX; replicate Data1): -3.03%
inhibition at 1 µM (BMX; replicate Data2): 11.3%
inhibition at 1 µM (MARK1; replicate Data1): -11.5%
inhibition at 1 µM (MARK1; replicate Data2): 4.11%
inhibition at 1 µM (FGFR1; replicate Data1): 2.7%
inhibition at 1 µM (FGFR1; replicate Data2): -0.57%
